The values below come from patent publication US20030082803A1, “Cell cycle control” (priority 1999, published 2003).

SMILES strings stand for the structures.

The subject of one test is mES cells. The test is described as follows: Cell cycle arrest and cell cycle structure by flow cytometry of PI-stained mES cells. Format: cell-based, murine. Conditions: up to concentrations of 140 μM. The procedure:
Cdk2 activity levels determine the rate of mES cell division but not cell cycle structure. (A) mES cells were grown for up to 8 passages in the presence (+) or absence (−) of Ro09-3033 (2 μM). Cdk2, cyclin E and cyclin B-associated H1 kinase activities were assayed as described previously after immunoprecipitation from whole cell lysates (100 μg protein). Input loading control was determined by probing immunoblots (15 μg lysate protein) with α-Cdk2 and α-Oct4 polyclonal antibodies. Quantitation of H1 kinase activities are shown in the lower panel as the average of two independent experiments. (B) Northern blot analysis of Oct4, Rex-1 and GAPDH transcripts from mES cells grown with (+) or without (−) inhibitor (2 μM) for the number of passages indicated. RNA was resolved by agarose gel electrophoresis, blotted and hybridized with [^32P]-labelled Oct4, Rex-1 and GAPDH probes (15 μg total RNA per lane). […] (C) After 8 passages in the presence (+) or absence (−) of 2 μM Ro09-3033, mES and mEPL cells were fixed and stained with PI and analysed by flow cytometry. […] Generation times of mEPL cells were not determined in this experiment.
In preparation for flow cytometry, cells were resuspended in 300 μl of PBS supplemented with 1% FCS. […] Cells were stained by the addition of 2.5 mg/ml propidium iodide (Sigma) and 0.5 mg/ml RNAase A and analysed on a Beckman-Coulter flow cytometer with WinMDi software.

For test [1] the following is noted: accumulation of cells at G1/S or G2/M, reference (31); cited from earlier work.

Regarding `CC[C@H](CO)Nc1nc(NCc2ccccc2)c2ncn(C(C)C)c2n1` [roscovitine], the “Effect on cell division times or cell cycle structure in mES cells” value in the test with mES cells is given as “no effect”. Besides, in test [1], the “Concentration range in which it typically acts as a cell cycle specific inhibitor” value is 20 to 30 µM.
